# According to patent US12396956B2, “Modified release compositions of a gamma-hydroxybutyric acid derivative” (XWPHARMA LTD., priority 2020, dated 2025):
# Assay: Oral bioavailability of γ-hydroxybutyric acid from the prodrug
# Settings: in a patient, oral administration
smiles,measurement,value
"CC(C)[C@H](N)C(=O)OCCCC(=O)O [compound (1), 4-((L-Valyl)oxy)butanoic acid]",oral bioavailability of γ-hydroxybutyric acid,greater than 60 % F
